Test results as given in patent publication EP1655027A1, “9-(N-methyl-piperidyliden-4)-thioxanthene for treatment of pulmonary hypertension and migraine” (Biofrontera Pharmaceuticals GmbH, priority 2004, dated 2006).

What was measured:
[1] = tested on: plasma protein extravasation; assay: mCPP model in guinea pigs: plasma protein extravasation in the dura mater (EvansBlue); type: in vivo; settings: for plasma protein extravasation as EvansBlue extinction at 600nm: 2 minutes before 1µg/kg mCPP, guinea pigs
Procedure: Functional test of Pimethixene in the mCPP model in guinea pigs.
In accordance to the protocol published by Markowitz et. al; (1987) and Olesen et. al; (2000), guinea pigs were used to determine the amount of plasma protein released at the blood vessels within the Dura mater after mCPP application. […] 2 minutes later 1µg/kg body weight mCPP were injected and followed by the i.v. application of EvansBlue as marker for the protein plasma extravasation. 15 minutes later animals were transcranial perfused and decapitated. A,defined area of the dura mater was isolated and transferred into an eppendorf tube containing 200µl formamid. Because EvansBlue binds to plasma protein, the amount of bound marker dye is a measure of extravasation of plasma protein. Formamid dissolves EvansBlue from the protein which can be colorimetric detected and quantified at 600 nm. Table 2: Determination of plasma protein extravasation as EvansBlue extinction at 600nm.

human 5-HT2B receptor = human 5-HT2B receptor (Homo sapiens, UniProt P41595); assay: Cloned human 5-HT2B receptor binding assay, [3H]-5HT
5-HT2A receptor = target: T1, 5-HT2A receptor (Homo sapiens, UniProt P28223); assay: 5-HT2A receptor binding method, [3H]ketanserin; settings: read-out: pKi values (converted)
T1 construct: expressed in transfected cells; host or cells: HEK293

5-HT2C receptor = target: T2, 5-HT2C receptor (Homo sapiens, UniProt P28335); assay: 5-HT2C receptor binding method, [3H]mesulergine; settings: read-out: pKi values (converted)
T2 construct: expressed in transfected cells; host or cells: Cos-7
Procedure: 5-HT2C receptors were labelled in Cos-7 cells expressing the human 5-HT2C receptor and in NIH-3T3 expressing the rat 5-HT2C receptor.
Assays were conducted as described for the 5-HT2A receptor except that the radioligand was [^3H]mesulergine. […] .

human H1 receptor = target: T3, human H1 receptor (Homo sapiens, UniProt P35367); assay: Cloned human H1 receptor binding assay, [3H]-mepyramine
T3 construct: expressed in transfected cells
Procedure: (§1) CHO cells were stably transfected with an expression plasmid pCineohH1, pCineohH2, pCineohH3 and pCineohH4 encoding the human Histamine H1, H2, H3 or H4 receptor, respectively. Recombinant cell lines were harvested after confluent growth, homogenized in ice-cold 50 mM Na2/potassium phosphate buffer (pH 7.4) and used for radioligand binding studies. Cell homogenates (40 - 50 µg of protein) were incubated for 30 min at 25°C in 50 mM Na2/potassium phosphate buffer (pH 7.4) in 400 µl with the various concentrations of either [^3H]-mepyramine, [^3H]-thiotidine, [^3H]-R-α-Methylhistamine, and [^3H]-pyramilamine for cells expressing recombinant human H1, H2, H3 and H4 receptors, respectively. The nonspecific binding was defined in the presence of 1 µM mianserin. In displacement studies, cell homogenated were incubated either with 1 nM [^3H]-mepyramine, 15 nM [^3H]-thiotidine, 0.5 nM [^3H]-R-α-Methylhistamine, or 15 nM [^3H]-pyramilamine and increasing concentrations of competing ligands. The incubations were stopped by rapid dilution with 3 ml of ice-cold 50 mM Na2/potassium phosphate buffer (pH 7.4). The bound radioactivity was seperated by filatration through Whatman GF/C filters that had been treated with 0.3 % polyethyleneimine. Filters were washed twice in 3 ml of buffer and radioactivity retained on the filters was measured by liquid scinitllation counting. […]

[2] = target: T4, human Histamine H2 receptor (Homo sapiens, UniProt P25021); assay: Cloned human H2 receptor binding assay, [3H]-thiotidine
T4 construct: expressed in transfected cells
Procedure: as §1

[3] = target: T5, human Histamine H3 receptor (Homo sapiens, UniProt Q9Y5N1); assay: Cloned human H3 receptor binding assay, [3H]-R-α-Methylhistamine
T5 construct: expressed in transfected cells
Procedure: as §1

[4] = target: T6, human Histamine H4 receptor (Homo sapiens, UniProt Q9H3N8); assay: Cloned human H4 receptor binding assay, [3H]-pyramilamine
T6 construct: expressed in transfected cells
Procedure: as §1

M1 muscarinic receptor = target: T7, M1 muscarinic receptor (Homo sapiens, UniProt P11229); assay: Receptor affinity, M1 (acetylcholine as agonist); type: binding; settings: read-out: pKi values (converted)
T7 sequence (P11229 1-460): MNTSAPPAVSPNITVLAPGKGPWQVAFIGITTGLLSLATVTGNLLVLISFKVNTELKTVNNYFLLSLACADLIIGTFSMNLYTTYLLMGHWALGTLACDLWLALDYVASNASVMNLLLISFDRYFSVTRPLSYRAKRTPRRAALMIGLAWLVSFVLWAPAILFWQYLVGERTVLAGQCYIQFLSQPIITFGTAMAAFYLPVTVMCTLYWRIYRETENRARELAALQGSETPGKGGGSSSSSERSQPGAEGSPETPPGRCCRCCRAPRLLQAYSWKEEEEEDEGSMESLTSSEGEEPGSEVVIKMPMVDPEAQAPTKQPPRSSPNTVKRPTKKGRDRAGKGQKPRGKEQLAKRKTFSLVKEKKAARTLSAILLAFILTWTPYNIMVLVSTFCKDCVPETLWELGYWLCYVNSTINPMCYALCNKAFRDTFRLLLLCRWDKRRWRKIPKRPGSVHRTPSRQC
Procedure: (§2) Summary of pKi values of Pimethixene for the respective receptor subtypes. pKi values were calculated using the equation of Cheng and Prusoff {pKi = -log (IC50/[1+ used concentration of Agonist/EC50])}.EC80 values were calculated from corresponding dose-response experiment using 5-HT, histamine, epinephrine (alpha 1A adrenergic receptor), dopamine (D2 dopaminergic receptor), and acetylcholine (M1 muscarinic receptor) as agonists.

D2 dopaminergic receptor = D2 dopaminergic receptor (Homo sapiens, UniProt P14416); assay: Receptor affinity, D2 (dopamine as agonist); type: binding; settings: read-out: pKi values (converted)
Procedure: as §2

[5] = target: T8, alpha 1A adrenergic receptor (Homo sapiens, UniProt P35348); assay: Receptor affinity, Alpha 1A (epinephrine as agonist); type: binding; settings: read-out: pKi values (converted)
T8 sequence (P35348 1-466): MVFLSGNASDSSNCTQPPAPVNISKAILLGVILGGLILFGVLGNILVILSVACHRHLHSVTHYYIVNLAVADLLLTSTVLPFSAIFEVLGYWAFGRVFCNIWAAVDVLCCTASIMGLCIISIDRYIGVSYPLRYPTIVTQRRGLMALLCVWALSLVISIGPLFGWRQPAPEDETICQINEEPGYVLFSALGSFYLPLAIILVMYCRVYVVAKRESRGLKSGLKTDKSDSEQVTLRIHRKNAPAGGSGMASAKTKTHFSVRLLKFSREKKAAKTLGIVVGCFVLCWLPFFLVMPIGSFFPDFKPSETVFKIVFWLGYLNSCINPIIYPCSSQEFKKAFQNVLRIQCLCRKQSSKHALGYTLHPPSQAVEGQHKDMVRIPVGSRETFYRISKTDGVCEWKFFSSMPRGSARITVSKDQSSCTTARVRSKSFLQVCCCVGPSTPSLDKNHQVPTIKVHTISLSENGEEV
Procedure: as §2

human 5-HT2B receptor, sequence (P41595 whole entry): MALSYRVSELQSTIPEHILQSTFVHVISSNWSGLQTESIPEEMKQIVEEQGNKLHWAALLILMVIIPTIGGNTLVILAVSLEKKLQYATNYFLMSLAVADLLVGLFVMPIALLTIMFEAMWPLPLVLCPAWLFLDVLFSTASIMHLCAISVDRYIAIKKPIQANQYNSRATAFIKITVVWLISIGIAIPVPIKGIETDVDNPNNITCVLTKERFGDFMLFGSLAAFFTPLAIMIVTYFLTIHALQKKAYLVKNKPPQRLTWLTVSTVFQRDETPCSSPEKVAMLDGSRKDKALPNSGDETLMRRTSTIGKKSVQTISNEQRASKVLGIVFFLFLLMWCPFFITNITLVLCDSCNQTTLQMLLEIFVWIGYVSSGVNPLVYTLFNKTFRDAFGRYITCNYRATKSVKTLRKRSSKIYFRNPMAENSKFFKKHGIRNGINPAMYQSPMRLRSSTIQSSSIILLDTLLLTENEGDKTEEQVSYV
T4 sequence (P25021 whole entry): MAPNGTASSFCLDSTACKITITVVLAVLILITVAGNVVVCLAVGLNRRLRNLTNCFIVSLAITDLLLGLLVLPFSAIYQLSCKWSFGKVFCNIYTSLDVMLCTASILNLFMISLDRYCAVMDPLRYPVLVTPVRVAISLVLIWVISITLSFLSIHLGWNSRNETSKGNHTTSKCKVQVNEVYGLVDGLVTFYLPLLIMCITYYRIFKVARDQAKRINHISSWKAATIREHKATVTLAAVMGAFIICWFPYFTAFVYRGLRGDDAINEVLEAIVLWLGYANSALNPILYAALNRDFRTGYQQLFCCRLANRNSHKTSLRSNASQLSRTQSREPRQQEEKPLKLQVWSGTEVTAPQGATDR
T6 sequence (Q9H3N8 whole entry): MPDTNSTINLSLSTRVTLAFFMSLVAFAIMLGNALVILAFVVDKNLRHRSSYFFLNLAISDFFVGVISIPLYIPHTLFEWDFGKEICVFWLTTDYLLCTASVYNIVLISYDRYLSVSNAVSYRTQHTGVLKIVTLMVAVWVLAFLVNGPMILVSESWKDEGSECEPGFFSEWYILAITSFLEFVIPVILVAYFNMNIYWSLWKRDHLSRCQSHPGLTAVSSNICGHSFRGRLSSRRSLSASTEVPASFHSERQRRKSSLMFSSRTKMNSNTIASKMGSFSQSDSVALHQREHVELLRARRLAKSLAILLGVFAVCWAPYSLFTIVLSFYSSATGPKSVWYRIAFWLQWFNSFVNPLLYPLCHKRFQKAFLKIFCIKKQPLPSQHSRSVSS
T3 sequence (P35367 whole entry): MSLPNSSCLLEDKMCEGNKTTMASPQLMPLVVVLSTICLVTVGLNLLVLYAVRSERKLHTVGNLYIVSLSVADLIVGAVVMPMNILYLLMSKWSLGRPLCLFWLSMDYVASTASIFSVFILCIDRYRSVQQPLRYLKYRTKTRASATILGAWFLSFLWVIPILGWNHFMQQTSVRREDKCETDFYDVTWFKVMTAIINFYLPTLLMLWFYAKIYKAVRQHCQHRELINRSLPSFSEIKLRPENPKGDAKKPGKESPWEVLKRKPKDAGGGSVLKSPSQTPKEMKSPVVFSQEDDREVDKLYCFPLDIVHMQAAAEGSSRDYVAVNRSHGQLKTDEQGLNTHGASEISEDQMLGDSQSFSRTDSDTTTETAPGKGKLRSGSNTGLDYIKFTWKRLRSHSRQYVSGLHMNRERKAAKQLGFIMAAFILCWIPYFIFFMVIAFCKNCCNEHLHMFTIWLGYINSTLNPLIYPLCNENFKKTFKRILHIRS
T5 sequence (Q9Y5N1 whole entry): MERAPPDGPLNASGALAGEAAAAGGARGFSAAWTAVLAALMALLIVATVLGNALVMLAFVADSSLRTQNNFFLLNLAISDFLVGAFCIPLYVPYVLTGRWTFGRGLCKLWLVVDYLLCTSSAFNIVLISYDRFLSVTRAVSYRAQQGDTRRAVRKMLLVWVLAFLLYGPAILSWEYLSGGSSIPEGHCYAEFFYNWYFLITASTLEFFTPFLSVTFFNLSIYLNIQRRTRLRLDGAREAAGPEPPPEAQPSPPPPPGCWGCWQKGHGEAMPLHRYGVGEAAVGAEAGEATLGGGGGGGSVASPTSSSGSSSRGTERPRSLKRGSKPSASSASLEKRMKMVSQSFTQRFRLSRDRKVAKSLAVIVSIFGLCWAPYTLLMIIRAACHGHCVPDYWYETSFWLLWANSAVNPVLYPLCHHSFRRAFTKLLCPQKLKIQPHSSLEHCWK
T1 sequence (P28223 whole entry): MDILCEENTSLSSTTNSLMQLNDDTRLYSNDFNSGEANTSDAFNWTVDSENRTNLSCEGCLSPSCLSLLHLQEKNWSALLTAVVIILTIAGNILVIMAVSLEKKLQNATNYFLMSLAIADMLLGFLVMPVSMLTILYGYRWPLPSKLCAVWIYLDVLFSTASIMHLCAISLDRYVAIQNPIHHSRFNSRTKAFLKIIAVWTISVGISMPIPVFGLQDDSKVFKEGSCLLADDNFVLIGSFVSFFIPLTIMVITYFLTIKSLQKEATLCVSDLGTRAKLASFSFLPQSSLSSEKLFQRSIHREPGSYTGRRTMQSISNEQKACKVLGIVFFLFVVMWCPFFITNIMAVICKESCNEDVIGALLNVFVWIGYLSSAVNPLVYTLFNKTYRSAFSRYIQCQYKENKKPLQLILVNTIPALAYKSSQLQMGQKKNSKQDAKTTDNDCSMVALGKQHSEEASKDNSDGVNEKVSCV
T2 sequence (P28335 33-458): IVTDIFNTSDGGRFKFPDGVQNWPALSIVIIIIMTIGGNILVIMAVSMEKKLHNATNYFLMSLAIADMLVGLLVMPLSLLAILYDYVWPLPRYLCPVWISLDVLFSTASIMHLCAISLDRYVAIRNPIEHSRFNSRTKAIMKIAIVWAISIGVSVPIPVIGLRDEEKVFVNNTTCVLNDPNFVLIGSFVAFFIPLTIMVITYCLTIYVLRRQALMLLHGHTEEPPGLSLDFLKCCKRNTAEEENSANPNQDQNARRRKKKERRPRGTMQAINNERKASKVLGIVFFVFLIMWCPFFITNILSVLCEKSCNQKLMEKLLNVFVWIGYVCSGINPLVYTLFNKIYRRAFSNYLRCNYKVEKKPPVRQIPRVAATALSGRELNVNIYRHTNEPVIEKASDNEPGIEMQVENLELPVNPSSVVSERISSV
D2 dopaminergic receptor, sequence (P14416 whole entry): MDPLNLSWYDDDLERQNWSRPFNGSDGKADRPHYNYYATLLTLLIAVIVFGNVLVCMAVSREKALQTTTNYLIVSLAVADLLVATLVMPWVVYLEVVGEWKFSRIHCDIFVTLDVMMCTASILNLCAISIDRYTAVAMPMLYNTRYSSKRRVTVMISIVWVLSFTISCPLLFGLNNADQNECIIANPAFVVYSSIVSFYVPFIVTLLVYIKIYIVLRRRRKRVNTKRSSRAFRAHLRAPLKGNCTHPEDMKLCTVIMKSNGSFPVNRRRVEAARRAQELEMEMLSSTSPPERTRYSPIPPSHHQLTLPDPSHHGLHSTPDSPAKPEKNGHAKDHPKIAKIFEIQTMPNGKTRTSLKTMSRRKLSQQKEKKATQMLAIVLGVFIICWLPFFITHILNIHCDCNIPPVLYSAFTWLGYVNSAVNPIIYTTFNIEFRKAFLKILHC

With CN1CCC(=C2c3ccccc3CCc3sccc32)CC1 [Pizotifen] the “plasma protein extravasation as EvansBlue extinction at 600nm” value (“plasma protein extravasation” for short) ([1]; 1 µg/kg i.v.) was 0,404 ± 0,025, the “plasma protein extravasation” value ([1]; 10 µg/kg i.v.) was 0,144 ± 0,035 and the “plasma protein extravasation” value ([1]; 100 µg/kg i.v.) was 0,230 ± 0,018. It also gave a Ki (human 5-HT2B receptor) of 2.88 nM.
With CN1CCC(=C2c3ccccc3Sc3ccccc32)CC1 [Pimethixene, 9-(N-methyl-piperidyliden-4)-thioxanthene] the Ki (5-HT2A receptor) was 0.0631 nM, the Ki (5-HT2C receptor) was 2.51 nM and the Ki (human H1 receptor; H1, read-out: pKi values (converted)) was 0.00794 nM. The affinity (human H1 receptor; human H1 receptor, result in words) was “high affinity”, the pKi values ([2]; H2) was “low activity” and the affinity ([2]; human H2 receptor, result in words) was “no affinity”. For the same molecule, the pKi values ([3]; H3) was “low activity”, the affinity ([3]; human H3 receptor, result in words) was “no affinity” and the pKi values ([4]; H4) was “low activity”. For the same molecule, the affinity ([4]; human H4 receptor, result in words) was “no affinity”, the Ki (M1 muscarinic receptor) was 2.51 nM and the Ki (D2 dopaminergic receptor) was 6.31 nM. For the same molecule, the Ki [5] was 25.1 nM, the “plasma protein extravasation” value ([1]; 0,01 µg/kg i.v.) was 0,157 ± 0,040 and the “plasma protein extravasation” value ([1]; 0,1 µg/kg i.v.) was 0,126 ± 0,028. For the same molecule, the “plasma protein extravasation” value ([1]; 0,001 µg/kg i.v.) was 0,269 ± 0,022, the Ki (human 5-HT2B receptor) was 0.0251 nM and the “affinity for the 5-HT2B receptor versus 5HT2C receptor” value (human 5-HT2B receptor; selectivity, result in words) was “selective affinity”.
For CC[C@@H](CO)NC(=O)[C@@H]1C=C2c3cccc4c3c(cn4C)C[C@H]2N(C)C1 [Methysergide], the “plasma protein extravasation” value ([1]; 0,1 µg/kg i.v.) was 0,265 ± 0,034, the “plasma protein extravasation” value ([1]; 1 µg/kg i.v.) was 0,250 ± 0,027 and the “plasma protein extravasation” value ([1]; 10 µg/kg i.v.) was 0,228 ± 0,064. For the same molecule, the “plasma protein extravasation” value ([1]; 100 µg/kg i.v.) was 0,189 ± 0,026.
For Clc1cccc(N2CCNCC2)c1 [mCPP, m-chlorophenylpiperazine], the extinction ([1]; positive control: mCPP agonist alone, 1µg/kg, negative control 0,130 ± 0,024) was 0,300 ± 0,038.
